Structures are written as SMILES.

In assay [1] the test system is alpha-smooth muscle actin (α-SMA). Kind of assay: Inhibition of TGF-β induced expression of alpha-smooth muscle actin (α-SMA) in CFSC cells, western blot. Format: cell-based. The following applies: compound at 10 μM, TGF-β (10 ng/mL), 24 hours, decrease in band intensity vs TGF-β only. Summed up: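 Cells at 60–70% confluence in serum-free DMEM received compound at 10 μM plus TGF-β (10 ng/mL) for 24 h at 37 °C. NP-40 lysates were run on western blot for α-SMA and β-actin, with ECL bands quantified. % inhibition = decrease in band intensity versus TGF-β alone.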

Assay [2] concerns CCl4-induced liver fibrosis in C57BL/6 mice. In words: Antifibrotic activity in CCl4-induced liver fibrosis, Sirius red staining of liver samples. Format: in vivo. The following applies: C57/BL6 mice, oral once daily for 2 weeks; malotilate 60 mg/kg, A11 and B9 50 mg/kg. On the procedure:
CCl4-induced liver fibrosis was described previously. Henderson et al., Proc. Nat'l. Acad. Sci. U.S.A. 2006, 103, 5060-5; Henderson et al., Nat. Med. 2013, 19, 1617-24. Briefly, eight-week-old C57BL/6 mice were randomly divided into two groups: a control group and a CCl4 administered group. Liver fibrosis was induced by intraperitoneal administration of 25% CCl4 at 0.5 mL/kg body weight (diluted in corn oil) twice weekly for 6 weeks. Dosing was started during the last 2 weeks of CCl4 administration. Malotilate (Mal) as a reference and compounds A11, A23, and B9 were each freshly prepared by dissolving in PEG 400 and orally administered in a dosing volume of 10 mL/kg. The mice were stratified (n=6-8 per group) based on their body weights and dosed once daily for 2 weeks with a vehicle, malotilate (60 mg/kg), compound A11 (50 mg/kg), compound A23 (50 mg/kg), or compound B9 (50 mg/kg). Their body weights were monitored daily during the intervention period. At the terminal of treatment, the mice were sacrificed and their liver samples were processed as below.
The mice liver samples were all taken at the same position of each large lobe, and then post-fixed in a 10% buffered formaldehyde for 48 h. The fixed livers were embedded in paraffin for microtome slicing into 5-μm-thick sections. The tissue sections were mounted onto MS-coated glass slides, deparaffinized, and stained with picric acid-Sirius red. Stained sections were photographed using a microscope with a digital camera. Images were taken at a full resolution with a single image dimension set at 1,360×1,024 pixels.
Total RNA was extracted from the liver using an MOLPURE® TRIEASY™ Plus Total RNA Kit (Yeasen, Shanghai, China). Total RNA (5 μg) was reverse-transcribed using 1st strand cDNA Synthesis SuperMix for qPCR (gDNA digester plus) Kit (Yeasen, Shanghai, China). […]

As to `CC1=C(CC(=O)O)c2cc(F)ccc2/C1=C\c1ccc(Oc2ccc(F)cc2)cc1` [Compound A11, 2-[(1Z)-5-Fluoro-1-{[4-(4-fluorophenoxy)phenyl]methylidene}-2-methyl-1H-inden-3-yl]acetic acid], the inhibition at 10 µM in assay [1] is 80 to 90%. Besides, the “Sirius red pathological staining of liver samples: effect on fibrosis induced by CCl4” value (“Sirius red pathological staining” for short) in assay [2] is given as “reversed the fibrosis induced by CCl4”. For `CC(C)OC(=O)C(C(=O)OC(C)C)=C1SC=CS1` [Mal, malotilate, reference compound], the “Sirius red pathological staining” value in assay [2] is “reversed the fibrosis induced by CCl4”. In assay [1], `CC1=C(CC(=O)O)c2cc(F)ccc2/C1=C\c1ccc(C(C)C)cc1` [Compound B9, (Z)-2-(5-fluoro-2-methyl-1-(4-isopropylbenzylidene)-1H-inden-3-yl)acetic acid] displayed an inhibition at 10 µM of over 90%. Also, the “Sirius red pathological staining” value in assay [2] was “reversed the fibrosis induced by CCl4”. `CC1=C(CC(=O)O)c2cc(F)cc(F)c2/C1=C\c1ccc(Oc2ccc(F)cc2)cc1` [Compound D15, 2-[(1Z)-5,7-Difluoro-2-methyl-1-({4-[4-fluorophenoxy]phenyl}methylidene)-1H-inden-3-yl]acetic acid] yielded an inhibition at 10 µM in assay [1] of over 90%. On the same count and under the same terms, then `CC1=C(CC(=O)N(C)O)c2cc(F)ccc2/C1=C\c1cccc(Oc2ccccc2)c1` [Compound C3, (Z)-2-(5-Fluoro-2-methyl-1-(3-phenoxybenzylidene)-1H-inden-3-yl)-N-hydroxy-N-methylacetamide], with 80 to 90%; and `CC1=C(CC(=O)NCCO)c2cc(F)ccc2/C1=C\c1ccc(Oc2ccc(F)cc2)cc1` [Compound A27, 2-[(1Z)-5-Fluoro-1-{[4-(4-fluorophenoxy)phenyl]methylidene}-2-methyl-1H-inden-3-yl]-N-(2-hydroxyethyl)acetamide], with 80 to 90%. On the same count and under the same terms, then `CC1=C(CC(=O)O)c2cc(F)ccc2/C1=C\c1ccc(Oc2cc(F)c(F)cc2F)cc1` [Compound A18, 2-[(1Z)-5-Fluoro-2-methyl-1-{[4-(2,4,5-trifluorophenoxy)phenyl]methylidene}-1H-inden-3-yl]acetic acid], with 70 to 80%. In assay [1], `CC1=C(CC(=O)O)c2cc(F)ccc2/C1=C\c1ccc(Oc2ccc(F)cc2Br)cc1` [Compound A17, 2-[(1Z)-1-{[4-(2-bromo-4-fluorophenoxy)phenyl]methylidene}-5-fluoro-2-methyl-1H-inden-3-yl]acetic acid] had an inhibition at 10 µM of over 90%.

The compound `CC1=C(CC(=O)O)c2cc(F)ccc2/C1=C\c1ccc(N(C)c2ccc(F)cc2)cc1` [Compound A31, 2-[(1Z)-5-Fluoro-1-({4-[(4-fluorophenyl)(methyl)amino]phenyl}methylidene)-2-methyl-1H-inden-3-yl]acetic acid] came in with an inhibition at 10 µM in assay [1] of over 90%. `CC1=C(CC(=O)O)c2cc(F)cc(F)c2/C1=C\c1cccc(Oc2ccccc2)c1` [Compound D20, 2-[(1Z)-5,7-Difluoro-1-(3-(phenoxy)benzylidene)-2-methyl-1H-inden-3-yl]-acetic acid] returned an inhibition at 10 µM in assay [1] of over 90%.

Take `CC1=C(CC(=O)O)c2cc(F)ccc2/C1=C\c1ccc(Oc2cnc(F)c(C)c2)cc1` [Compound A21, 2-[(1Z)-5-Fluoro-1-({4-[(6-fluoro-5-methylpyridin-3-yl)oxy]phenyl}-methylidene)-2-methyl-1H-inden-3-yl]acetic acid]: the inhibition at 10 µM in assay [1] was 80 to 90%. Consider `CC1=C(CC(=O)O)c2cc(F)ccc2/C1=C\c1ccc(Oc2ccc(C(C)C)cc2)cc1` [Compound A5, 2-[(1Z)-5-Fluoro-2-methyl-1-({4-[4-(propan-2-yl)phenoxy]phenyl}methylidene)-1H-inden-3-yl]acetic acid], for which the inhibition at 10 µM in assay [1] was over 90%.
